Values after ≈ are worked out from the molar mass of the structure shown. Like-named read-outs stand apart in the source and are kept apart here.
Key:
Type in all cases: physicochemical
[1] = Solubility in formulation vehicles with different solubilizers; settings: for Solubility in vehicle containing Solutol 15 HS compared to polyoxyethylated surfactants: comparison in words; for solubility at 8 weeks: read-out: Solubility (mg/ml) measured after 8 weeks
Excerpt: Table 1 summarizes solubility of Cmpd 1 in vehicles with 4 different solubilizers over a range of temperatures.

[2] = Stability of Cmpd 1 in formulations, impurities by percent area LC; settings: macrogol 15 hydroxystearate vs PS80 formulation of Table 3; 25° C. and 40° C. storage; FIGS. 2A-D
Experimental: FIGS. 2A-D: Stability results for Cmpd 1 in formulations containing either polysorbate 80 (PS80) or macrogol 15 hydroxystearate (Sol-2) as solubilizer as shown in Table 3. See Examples. […] Impurity amounts were calculated by percent area by liquid chromatography (LC). FIG. 2A: 25° C. storage, total impurities. FIG. 2B: 25° C. storage, major degradation product. FIG. 2C: 40° C. storage, total impurities. FIG. 2D: 40° C. storage, major degradation product. Legend: as in FIG. 1.

[3] = Stability of Cmpd 2 in formulations, percent remaining by LC
Experimental: FIG. 1. See Examples. Samples were stored at 25° C. Axes: x-axis (time, months); y-axis (stability of Cmpd 2 as measured by percent remaining by liquid chromatography, LC). Legend: macrogol 15 hydroxystearate (box); polysorbate 80 (diamond).
See Examples. […] Axes: x-axis (time, months); y-axis (stability of Cmpd 2 as measured by percent remaining by liquid chromatography, LC). Legend Formulation PSI, storage 40° C./20% RH, % remaining by LC (Diamond); Formulation Sol1, storage 40° C./20% RH, % remaining by LC (Square); Formulation PSI, storage 25° C./40% RH, % remaining by LC (Triangle); Formulation Sol1, storage 25° C./40% RH, % remaining by LC (cross); Formulation PSI, storage 5° C., % remaining by LC (Asterix); Formulation Sol1, storage 5° C., % remaining by LC (circle).
Axes: x-axis (time, months); y-axis (stability of Cmpd 2 as measured by percent remaining by liquid chromatography, LC). Legend Formulation #2, storage 5°, % remaining by LC (Diamond); Formulation #2, storage 25° C./40% RH, % remaining by LC (Square); Formulation #2, storage 30° C./60% RH, % remaining by LC (Triangle); Formulation #5, storage 5° C., % remaining by LC (cross); Formulation #5, storage 25° C./40% RH, % remaining by LC (Asterix); Formulation #5, storage 30° C./60% RH, % remaining by LC (circle).

[4] = Cmpd 4 solubility in Solutol HS 15 vehicles

For `CCCCC[C@H](O)c1ccc(N2C(=O)CC[C@@H]2COCc2ccc(C(=O)OC(C)C)s2)cc1` [Cmpd 1, isopropyl 5-((((R)-1-(4-((S)-1-hydroxyhexyl)phenyl)-5-oxopyrrolidin-2-yl)methoxy)methyl)thiophene-2-carboxylate], the “Solubility in vehicle containing Solutol 15 HS compared to polyoxyethylated surfactants” value [1] was “higher than that containing POE40 stearate or polysorbate 20, but slightly lower than that containing Polysorbate 80”, the solubility at 8 weeks ([1]; formulation vehicle with 1% POE 40 Stearate, aqueous with cosolvent or surfactant or cyclodextrin, vehicle with 1% POE 40 Stearate, 5 °C) was 1.27 mg/mL (≈ 2680 µM) and the solubility at 8 weeks ([1]; formulation vehicle with 1% POE 40 Stearate, aqueous with cosolvent or surfactant or cyclodextrin, vehicle with 1% POE 40 Stearate, 25 °C) was 1.21 mg/mL (≈ 2560 µM). For the same compound, the solubility at 8 weeks ([1]; formulation vehicle with 1% POE 40 Stearate, aqueous with cosolvent or surfactant or cyclodextrin, vehicle with 1% POE 40 Stearate, 40 °C) was 1.15 mg/mL (≈ 2430 µM), the solubility at 8 weeks ([1]; formulation vehicle with 1% Polysorbate 20, aqueous with cosolvent or surfactant or cyclodextrin, vehicle with 1% Polysorbate 20, 5 °C) was 1.24 mg/mL (≈ 2620 µM) and the solubility at 8 weeks ([1]; formulation vehicle with 1% Polysorbate 20, aqueous with cosolvent or surfactant or cyclodextrin, vehicle with 1% Polysorbate 20, 25 °C) was 1.18 mg/mL (≈ 2490 µM). The solubility at 8 weeks ([1]; formulation vehicle with 1% Polysorbate 20, aqueous with cosolvent or surfactant or cyclodextrin, vehicle with 1% Polysorbate 20, 40 °C) was 1.05 mg/mL (≈ 2220 µM), the solubility at 8 weeks ([1]; formulation vehicle with 1% Polysorbate 80, aqueous with cosolvent or surfactant or cyclodextrin, vehicle with 1% Polysorbate 80, 5 °C) was 1.68 mg/mL (≈ 3540 µM) and the solubility at 8 weeks ([1]; formulation vehicle with 1% Polysorbate 80, aqueous with cosolvent or surfactant or cyclodextrin, vehicle with 1% Polysorbate 80, 25 °C) was 1.52 mg/mL (≈ 3220 µM). For the same compound, the solubility at 8 weeks ([1]; formulation vehicle with 1% Polysorbate 80, aqueous with cosolvent or surfactant or cyclodextrin, vehicle with 1% Polysorbate 80, 40 °C) was 1.46 mg/mL (≈ 3080 µM), the solubility at 8 weeks ([1]; formulation vehicle with 1% Solutol HS 15, aqueous with cosolvent or surfactant or cyclodextrin, vehicle with 1% Solutol HS 15, 5 °C) was 1.5 mg/mL (≈ 3170 µM) and the solubility at 8 weeks ([1]; formulation vehicle with 1% Solutol HS 15, aqueous with cosolvent or surfactant or cyclodextrin, vehicle with 1% Solutol HS 15, 25 °C) was 1.32 mg/mL (≈ 2790 µM). For the same compound, the solubility at 8 weeks ([1]; formulation vehicle with 1% Solutol HS 15, aqueous with cosolvent or surfactant or cyclodextrin, vehicle with 1% Solutol HS 15, 40 °C) was 1.24 mg/mL (≈ 2610 µM) and the “Oxidative degradation (total impurities, major degradation product)” value [2] was “prevent oxidative degradation seen in PS80 containing formulations”.
With `CCCCC[C@H](O)c1ccc(N2C(=O)CC[C@@H]2CCCc2ccc(C(=O)OC(C)C)s2)cc1` [Cmpd 2, isopropyl 5-(3-((S)-1-(4-((S)-1-hydroxyhexyl)phenyl)-5-oxopyrrolidin-2-yl)propyl)thiophene-2-carboxylate] the “Solubility in vehicle containing Solutol 15 HS compared to polyoxyethylated surfactants” value [1] was “comparable or better solubility”, the “Degradation (percent remaining by LC)” value ([3]; macrogol 15 hydroxystearate (#2) vs PS80 (#5) formulation of Table 8, 5° C., 25° C./40% RH, 30° C./60% RH, FIG. 4) was “prevent degradation seen in PS80 containing formulations at all storage conditions” and the “Degradation (percent remaining by LC)” value ([3]; macrogol 15 hydroxystearate vs PS80 formulation of Table 7, 40° C./20% RH storage, FIG. 3) was “prevent degradation seen in PS80 containing formulations”.
With `Cc1c(COC(=O)C(C)(C)C)cccc1[C@H](C)c1c[nH]cn1` [Cmpd 4, 3-[(1S)-1-(1H-imidazol-4-yl)ethyl]-2-methylbenzyl pivalate] the “Cmpd 4 Solubility (% w/w) <mixing overnights (>24 hr) at ambient room temperature>” value ([4]; 0.1% Solutol HS 15, adjusted to pH 5.5, final pH 5.9 post-filtration) was 0.07 % w/w, the “Cmpd 4 Solubility (% w/w) <mixing overnights (>24 hr) at ambient room temperature>” value ([4]; 0.1% Solutol HS 15, adjusted to pH 6.5, final pH 6.7 post-filtration) was 0.02 % w/w and the “Cmpd 4 Solubility (% w/w) <mixing overnights (>24 hr) at ambient room temperature>” value ([4]; 0.5% Solutol HS 15, adjusted to pH 5.5, final pH 6.1 post-filtration) was 0.11 % w/w. The “Cmpd 4 Solubility (% w/w) <mixing overnights (>24 hr) at ambient room temperature>” value ([4]; 0.5% Solutol HS 15, adjusted to pH 6.5, final pH 6.8 post-filtration) was 0.06 % w/w, the “Cmpd 4 Solubility (% w/w) <mixing overnights (>24 hr) at ambient room temperature>” value ([4]; 1.0% Solutol HS 15, adjusted to pH 5.5, final pH 6.1 post-filtration) was 0.16 % w/w and the “Cmpd 4 Solubility (% w/w) <mixing overnights (>24 hr) at ambient room temperature>” value ([4]; 1.0% Solutol HS 15, adjusted to pH 6.5, final pH 6.8 post-filtration) was 0.10 % w/w.
